Test results reported in article PMC11435058, “Synthesis of New Thiazole-Privileged Chalcones as Tubulin Polymerization Inhibitors with Potential Anticancer Activities” (Pharmaceuticals, 2024).

What was measured:
Experiment in all cases: NCI-60 anticancer screen (SRB; single dose and five doses)
MDA-MB-468 = type: cell-based, human
Protocol: The methodology of the NCI anticancer screening has been described in detail elsewhere (http://www.dtp.nci.nih.gov). For detailed information, see Appendix A in the Supplementary Materials.
4.2.1. Screening of the anticancer activity against a panel of 60 cell Lines.
The methodology of the NCI anticancer screening has been described in detail elsewhere (http://www.dtp.nci.nih.gov.) Briefly, the primary anticancer assay was performed at approximately 60 human tumor cell lines panel derived from nine neoplastic diseases, in accordance with the protocol of the Drug Evaluation Branch, National Cancer Institute, Bethesda. Tested compounds were added to the culture at a single concentration (10μM) and the cultures were incubated for 48 h. End -point determinations were made with a protein binding dye, SRB. Results for each tested compound was reported as the percent of growth of the treated cells when compared to the untreated control cells. The percentage growth was evaluated spectrophotometrically versus controls not treated with test agents. […]

MOLT-4 = details: Homo sapiens
RPMI-8226 = details: Homo sapiens
HOP-62 = details: Homo sapiens
NCI-H226 = details: Homo sapiens
NCI-H23 = details: Homo sapiens
NCI-H322M = details: Homo sapiens
COLO 205 = details: Homo sapiens
HCC-2998 = system: HCC-2998
HCT-15 = details: Homo sapiens
SF-295 = details: Homo sapiens
U251 = details: Homo sapiens
LOX IMVI = details: Homo sapiens
MALME-3M = details: Homo sapiens
M14 = details: Homo sapiens
SK-MEL-2 = details: Homo sapiens
UACC-257 = details: Homo sapiens
UACC-62 = details: Homo sapiens
OVCAR-4 = details: Homo sapiens
OVCAR-8 = details: Homo sapiens
786-0 = details: Homo sapiens
TK-10 = details: Homo sapiens
MCF7 = details: Homo sapiens
BT-549 = details: Homo sapiens
T-47D = details: Homo sapiens, T47D
[1] = 48 h, read-out: Growth Percentage

Work on Cc1[nH]c(=S)sc1C(=O)/C=C/c1ccc(F)cc1 [2c, (E)-3-(4-Fluorophenyl)-1-(4-Methyl-2-Thioxo-2,3-Dihydrothiazol-5-yl)Prop-2-En-1-One] yielded an activity at 10 µM (MDA-MB-468; Homo sapiens, 48 h, MDA-MB-468, dose of 10 μM, read-out: Growth Percentage) of -4.51%, a GI50 (MDA-MB-468; Homo sapiens, MDA-MB-468, Breast Cancer, five dose) of 1.93 µM and a CC50 (MDA-MB-468; Homo sapiens, MDA-MB-468, Breast Cancer, five dose, read-out: LC50 (the source's name)) of 25.3 µM. For the same compound, the TGI (MDA-MB-468; MDA-MB-468, Breast Cancer, five dose) was 6.46 µM, the GI50 (MOLT-4; MOLT-4) was 16.7 µM and the activity at 10 µM (MOLT-4; MOLT-4, 48 h, read-out: Growth Percentage) was 58.7%. The CC50 (MOLT-4; MOLT-4, read-out: LC50) was > 100 µM, the IC (TGI) (MOLT-4; MOLT-4, read-out: TGI) was 64.3 µM and the GI50 (RPMI-8226; RPMI-8226) was 2.85 µM. For the same compound, the activity at 10 µM (RPMI-8226; RPMI-8226, 48 h, read-out: Growth Percentage) was 2.32%, the CC50 (RPMI-8226; RPMI-8226, read-out: LC50) was > 100 µM and the IC (TGI) (RPMI-8226; RPMI-8226, read-out: TGI) was > 100 µM. For the same compound, the GI50 (HOP-62; HOP-62) was 3.83 µM, the CC50 (HOP-62; HOP-62, read-out: LC50) was 48.7 µM and the IC (TGI) (HOP-62; HOP-62, read-out: TGI) was 16.2 µM. The GI50 (NCI-H226; NCI-H226) was 5.27 µM, the activity at 10 µM (NCI-H226; NCI-H226, 48 h, read-out: Growth Percentage) was 67.1% and the CC50 (NCI-H226; NCI-H226, read-out: LC50) was > 100 µM. For the same compound, the IC (TGI) (NCI-H226; NCI-H226, read-out: TGI) was 27.6 µM, the GI50 (NCI-H23; NCI-H23) was 10.6 µM and the activity at 10 µM (NCI-H23; NCI-H23, 48 h, read-out: Growth Percentage) was 62.7%. For the same compound, the CC50 (NCI-H23; NCI-H23, read-out: LC50) was 49.9 µM, the IC (TGI) (NCI-H23; NCI-H23, read-out: TGI) was 23 µM and the GI50 (NCI-H322M) was 4.1 µM. It also gave an activity at 10 µM (NCI-H322M; [1]) of 64%, a CC50 (NCI-H322M; read-out: LC50) of 44.8 µM and an IC (TGI) (NCI-H322M; read-out: TGI) of 17.9 µM. For the same compound, the GI50 (COLO 205; COLO 205) was 15.4 µM, the CC50 (COLO 205; COLO 205, read-out: LC50) was 80.4 µM and the IC (TGI) (COLO 205; COLO 205, read-out: TGI) was 35.2 µM. It also gave a GI50 (HCC-2998; Homo sapiens, HCC 2998) of 3.46 µM, an activity at 10 µM (HCC-2998; Homo sapiens, HCC 2998, 48 h, read-out: Growth Percentage) of 27.1% and a CC50 (HCC-2998; Homo sapiens, HCC 2998, read-out: LC50) of 36.5 µM. For the same compound, the TGI (HCC-2998; five-dose, Colon Cancer HCC-2998) was 13.2 µM, the GI50 (HCT-15; HCT-15) was 3.27 µM and the activity at 10 µM (HCT-15; HCT-15, 48 h, read-out: Growth Percentage) was 14.7%. For the same compound, the CC50 (HCT-15; HCT-15, read-out: LC50) was 43.7 µM, the IC (TGI) (HCT-15; HCT-15, read-out: TGI) was 14.2 µM and the GI50 (SF-295; SF-295) was 12.5 µM. The activity at 10 µM (SF-295; SF-295, 48 h, read-out: Growth Percentage) was 60.6%, the CC50 (SF-295; SF-295, read-out: LC50) was 52.9 µM and the IC (TGI) (SF-295; SF-295, read-out: TGI) was 25.7 µM. For the same compound, the GI50 (U251; U-251) was 3.63 µM, the activity at 10 µM (U251; U-251, 48 h, read-out: Growth Percentage) was 14.1% and the CC50 (U251; U-251, read-out: LC50) was 41.9 µM. For the same compound, the IC (TGI) (U251; U-251, read-out: TGI) was 15.1 µM, the GI50 (LOX IMVI) was 3.26 µM and the activity at 10 µM (LOX IMVI; [1]) was 8.91%. It also gave a CC50 (LOX IMVI; read-out: LC50) of 36.6 µM, an IC (TGI) (LOX IMVI; read-out: TGI) of 12.7 µM and a GI50 (MALME-3M) of 12.4 µM. The activity at 10 µM (MALME-3M; [1]) was 85.8%, the CC50 (MALME-3M; read-out: LC50) was 60.9 µM and the IC (TGI) (MALME-3M; read-out: TGI) was 27.5 µM. For the same compound, the GI50 (M14; M14) was 6.97 µM, the activity at 10 µM (M14; M14, 48 h, read-out: Growth Percentage) was 49.6% and the IC (TGI) (M14; M14, read-out: TGI) was 22.2 µM. It also gave a GI50 (SK-MEL-2; SK-MEL-2) of 11.6 µM, an activity at 10 µM (SK-MEL-2; SK-MEL-2, 48 h, read-out: Growth Percentage) of 56.6% and a CC50 (SK-MEL-2; SK-MEL-2, read-out: LC50) of 50.1 µM. The IC (TGI) (SK-MEL-2; SK-MEL-2, read-out: TGI) was 24.1 µM, the GI50 (UACC-257; UACC-257) was 12.6 µM and the activity at 10 µM (UACC-257; UACC-257, 48 h, read-out: Growth Percentage) was 64.1%. For the same compound, the CC50 (UACC-257; UACC-257, read-out: LC50) was 56.6 µM, the IC (TGI) (UACC-257; UACC-257, read-out: TGI) was 26.7 µM and the GI50 (UACC-62; UACC-62) was 5.3 µM. For the same compound, the activity at 10 µM (UACC-62; UACC-62, 48 h, read-out: Growth Percentage) was 47.3%, the IC (TGI) (UACC-62; UACC-62, read-out: TGI) was 19.3 µM and the GI50 (OVCAR-4; OVCAR-4) was 6.03 µM. The activity at 10 µM (OVCAR-4; OVCAR-4, 48 h, read-out: Growth Percentage) was 48.4%, the CC50 (OVCAR-4; OVCAR-4, read-out: LC50) was 44.7 µM and the IC (TGI) (OVCAR-4; OVCAR-4, read-out: TGI) was 19.6 µM. The GI50 (OVCAR-8; OVCAR-8) was 3.99 µM, the activity at 10 µM (OVCAR-8; OVCAR-8, 48 h, read-out: Growth Percentage) was -13.6% and the CC50 (OVCAR-8; OVCAR-8, read-out: LC50) was 50.9 µM. The IC (TGI) (OVCAR-8; OVCAR-8, read-out: TGI) was 16.2 µM, the GI50 (786-0; 786-0) was 4.59 µM and the activity at 10 µM (786-0; 786-0, 48 h, read-out: Growth Percentage) was 37.3%. The CC50 (786-0; 786-0, read-out: LC50) was 47.1 µM, the IC (TGI) (786-0; 786-0, read-out: TGI) was 17.6 µM and the GI50 (TK-10; TK-10) was 12.5 µM. The activity at 10 µM (TK-10; TK-10, 48 h, read-out: Growth Percentage) was 40.4%, the CC50 (TK-10; TK-10, read-out: LC50) was 50.7 µM and the IC (TGI) (TK-10; TK-10, read-out: TGI) was 25.2 µM. It also gave a GI50 (MCF7; MCF7) of 2.65 µM, an activity at 10 µM (MCF7; MCF7, 48 h, read-out: Growth Percentage) of 9.48% and a CC50 (MCF7; MCF7, read-out: LC50) of 37 µM. The IC (TGI) (MCF7; MCF7, read-out: TGI) was 11.4 µM, the GI50 (BT-549; BT-549) was 2.34 µM and the activity at 10 µM (BT-549; BT-549, 48 h, read-out: Growth Percentage) was 23.2%. For the same compound, the IC (TGI) (BT-549; BT-549, read-out: TGI) was 8.27 µM, the GI50 (T-47D) was 3.94 µM and the CC50 (T-47D; read-out: LC50) was > 100 µM. The IC (TGI) (T-47D; read-out: TGI) was 28.8 µM.
